{"source": "ChEMBL document CHEMBL6114967", "about": "“Design and synthesis of novel sulfur-substituted triptolide with the ability to induce autophagy through inhibition of SRSF1 expression” (Eur J Med Chem, 2025)"}
{"system": "HepG2", "test": "Antiproliferative activity against human HepG2 cells assessed as inhibition of cell proliferation incubated for 72 hrs by MTT assay", "assay_type": "functional, cell-based", "settings": "HepG2, 72 h", "units": {"IC50": "nM"}}
{"compound": "CC(C)[C@]12O[C@H]1[C@@H]1O[C@]13[C@]1(O[C@H]1C[C@H]1C4=C(CC[C@@]13C)C(=S)OC4)[C@H]2O", "IC50": 1870}
{"compound": "CC(C)[C@]12O[C@H]1[C@@H]1O[C@@]13[C@@]1(C)CCC4=C(COC4=S)[C@@H]1C[C@@H]1O[C@@]13C2=O", "IC50": 630}
{"system": "MCF7", "test": "Antiproliferative activity against human MCF7 cells assessed as inhibition of cell proliferation incubated for 72 hrs by MTT assay", "assay_type": "functional, cell-based", "settings": "MCF7, 72 h", "units": {"IC50": "nM"}}
{"compound": "CC(C)[C@]12O[C@H]1[C@@H]1O[C@]13[C@]1(O[C@H]1C[C@H]1C4=C(CC[C@@]13C)C(=S)OC4)[C@H]2O", "IC50": 3040}
{"compound": "CC(C)[C@]12O[C@H]1[C@@H]1O[C@@]13[C@@]1(C)CCC4=C(COC4=S)[C@@H]1C[C@@H]1O[C@@]13C2=O", "IC50": 1790}
{"system": "HCT-116", "test": "Antiproliferative activity against human HCT-116 cells assessed as inhibition of cell proliferation incubated for 72 hrs by MTT assay", "assay_type": "functional, cell-based", "settings": "HCT-116, 72 h", "units": {"IC50": "nM"}}
{"compound": "CC(C)[C@]12O[C@H]1[C@@H]1O[C@]13[C@]1(O[C@H]1C[C@H]1C4=C(CC[C@@]13C)C(=S)OC4)[C@H]2O", "IC50": 1340}
{"compound": "CC(C)[C@]12O[C@H]1[C@@H]1O[C@@]13[C@@]1(C)CCC4=C(COC4=S)[C@@H]1C[C@@H]1O[C@@]13C2=O", "IC50": 520}
{"system": "U-251", "test": "Antiproliferative activity against human U-251 cells assessed as inhibition of cell proliferation incubated for 72 hrs by MTT assay", "assay_type": "functional, cell-based", "settings": "U-251, 72 h", "units": {"IC50": "nM"}}
{"compound": "CC(C)[C@]12O[C@H]1[C@@H]1O[C@]13[C@]1(O[C@H]1C[C@H]1C4=C(CC[C@@]13C)C(=S)OC4)[C@H]2O", "IC50": 6320}
{"compound": "CC(C)[C@]12O[C@H]1[C@@H]1O[C@@]13[C@@]1(C)CCC4=C(COC4=S)[C@@H]1C[C@@H]1O[C@@]13C2=O", "IC50": 2430}
{"system": "HGC-27", "test": "Antiproliferative activity against human HGC-27 cells assessed as inhibition of cell proliferation incubated for 72 hrs by MTT assay", "assay_type": "functional, cell-based", "settings": "HGC-27, 72 h", "units": {"IC50": "nM"}}
{"compound": "CC(C)[C@]12O[C@H]1[C@@H]1O[C@]13[C@]1(O[C@H]1C[C@H]1C4=C(CC[C@@]13C)C(=S)OC4)[C@H]2O", "IC50": 700}
{"compound": "CC(C)[C@]12O[C@H]1[C@@H]1O[C@@]13[C@@]1(C)CCC4=C(COC4=S)[C@@H]1C[C@@H]1O[C@@]13C2=O", "IC50": 620}
{"system": "AGS", "test": "Antiproliferative activity against human AGS cells assessed as inhibition of cell proliferation incubated for 72 hrs by MTT assay", "assay_type": "functional, cell-based", "settings": "not given", "units": {"IC50": "nM"}}
{"compound": "CC(C)[C@]12O[C@H]1[C@@H]1O[C@]13[C@]1(O[C@H]1C[C@H]1C4=C(CC[C@@]13C)C(=S)OC4)[C@H]2O", "IC50": 2580}
{"compound": "CC(C)[C@]12O[C@H]1[C@@H]1O[C@@]13[C@@]1(C)CCC4=C(COC4=S)[C@@H]1C[C@@H]1O[C@@]13C2=O", "IC50": 1030}
{"system": "BGC-823", "test": "Antiproliferative activity against human BGC-823 cells assessed as inhibition of cell proliferation incubated for 72 hrs by MTT assay", "assay_type": "functional, cell-based", "settings": "BGC-823, 72 h", "units": {"IC50": "nM"}}
{"compound": "CC(C)[C@]12O[C@H]1[C@@H]1O[C@]13[C@]1(O[C@H]1C[C@H]1C4=C(CC[C@@]13C)C(=S)OC4)[C@H]2O", "IC50": 3660}
{"compound": "CC(C)[C@]12O[C@H]1[C@@H]1O[C@@]13[C@@]1(C)CCC4=C(COC4=S)[C@@H]1C[C@@H]1O[C@@]13C2=O", "IC50": 1330}
{"system": "SGC-7901", "test": "Antiproliferative activity against human SGC-7901 cells assessed as inhibition of cell proliferation incubated for 72 hrs by MTT assay", "assay_type": "functional, cell-based", "settings": "SGC-7901, 72 h", "units": {"IC50": "nM"}}
{"compound": "CC(C)[C@]12O[C@H]1[C@@H]1O[C@]13[C@]1(O[C@H]1C[C@H]1C4=C(CC[C@@]13C)C(=S)OC4)[C@H]2O", "IC50": 4830}
{"compound": "CC(C)[C@]12O[C@H]1[C@@H]1O[C@@]13[C@@]1(C)CCC4=C(COC4=S)[C@@H]1C[C@@H]1O[C@@]13C2=O", "IC50": 1880}
{"system": "A549", "test": "Antiproliferative activity against human A549 cells assessed as inhibition of cell proliferation incubated for 72 hrs by MTT assay", "assay_type": "functional, cell-based", "settings": "A549, 72 h", "units": {"IC50": "nM"}}
{"compound": "CC(C)[C@]12O[C@H]1[C@@H]1O[C@]13[C@]1(O[C@H]1C[C@H]1C4=C(CC[C@@]13C)C(=S)OC4)[C@H]2O", "IC50": "> 10000"}
{"compound": "CC(C)[C@]12O[C@H]1[C@@H]1O[C@@]13[C@@]1(C)CCC4=C(COC4=S)[C@@H]1C[C@@H]1O[C@@]13C2=O", "IC50": "> 10000"}
{"system": "B16-F10", "test": "Antiproliferative activity against mouse B16-F10 cells assessed as inhibition of cell proliferation incubated for 72 hrs by MTT assay", "assay_type": "functional, cell-based", "settings": "B16-F10, 72 h", "units": {"IC50": "nM"}}
{"compound": "CC(C)[C@]12O[C@H]1[C@@H]1O[C@]13[C@]1(O[C@H]1C[C@H]1C4=C(CC[C@@]13C)C(=S)OC4)[C@H]2O", "IC50": 1460}
{"compound": "CC(C)[C@]12O[C@H]1[C@@H]1O[C@@]13[C@@]1(C)CCC4=C(COC4=S)[C@@H]1C[C@@H]1O[C@@]13C2=O", "IC50": 1030}
{"system": "not listed separately", "test": "Antiproliferative activity against human LO2 cells assessed as inhibition of cell proliferation incubated for 72 hrs by MTT assay", "assay_type": "toxicity, cell-based, L02", "settings": "not given", "units": {"IC50 at 72 h": "nM"}}
{"compound": "CC(C)[C@]12O[C@H]1[C@@H]1O[C@]13[C@]1(O[C@H]1C[C@H]1C4=C(CC[C@@]13C)C(=S)OC4)[C@H]2O", "IC50 at 72 h": 6910}
{"compound": "CC(C)[C@]12O[C@H]1[C@@H]1O[C@@]13[C@@]1(C)CCC4=C(COC4=S)[C@@H]1C[C@@H]1O[C@@]13C2=O", "IC50 at 72 h": 3350}
{"system": "not listed separately", "test": "Selectivity index, ratio of IC50 for antiproliferative activity against human LO2 cells to IC50 for antiproliferative activity against human HGC-27 cells", "assay_type": "toxicity, cell-based", "settings": "LO2 cells and HGC-27 cells, read-out: Ratio IC50"}
{"compound": "CC(C)[C@]12O[C@H]1[C@@H]1O[C@]13[C@]1(O[C@H]1C[C@H]1C4=C(CC[C@@]13C)C(=S)OC4)[C@H]2O", "selectivity ratio": 12.2}
{"compound": "CC(C)[C@]12O[C@H]1[C@@H]1O[C@@]13[C@@]1(C)CCC4=C(COC4=S)[C@@H]1C[C@@H]1O[C@@]13C2=O", "selectivity ratio": 5.43}
{"system": "not listed separately", "test": "Selectivity index, ratio of IC50 for antiproliferative activity against human LO2 cells to IC50 for antiproliferative activity against human AGS cells", "assay_type": "cell-based", "settings": "LO2 cells and AGS cells, read-out: Ratio IC50"}
{"compound": "CC(C)[C@]12O[C@H]1[C@@H]1O[C@]13[C@]1(O[C@H]1C[C@H]1C4=C(CC[C@@]13C)C(=S)OC4)[C@H]2O", "selectivity ratio": 2.68}
{"compound": "CC(C)[C@]12O[C@H]1[C@@H]1O[C@@]13[C@@]1(C)CCC4=C(COC4=S)[C@@H]1C[C@@H]1O[C@@]13C2=O", "selectivity ratio": 3.26}
